This note sets out measurements from patent publication US12150998B2, “Bicyclic peptide ligands specific for P-selectin” (BicycleTx Limited, priority 2021, dated 2024).

For the assay, the target named is T1, human P-Selectin protein (Homo sapiens, UniProt P16109).
T1 sequence (P16109 42-830): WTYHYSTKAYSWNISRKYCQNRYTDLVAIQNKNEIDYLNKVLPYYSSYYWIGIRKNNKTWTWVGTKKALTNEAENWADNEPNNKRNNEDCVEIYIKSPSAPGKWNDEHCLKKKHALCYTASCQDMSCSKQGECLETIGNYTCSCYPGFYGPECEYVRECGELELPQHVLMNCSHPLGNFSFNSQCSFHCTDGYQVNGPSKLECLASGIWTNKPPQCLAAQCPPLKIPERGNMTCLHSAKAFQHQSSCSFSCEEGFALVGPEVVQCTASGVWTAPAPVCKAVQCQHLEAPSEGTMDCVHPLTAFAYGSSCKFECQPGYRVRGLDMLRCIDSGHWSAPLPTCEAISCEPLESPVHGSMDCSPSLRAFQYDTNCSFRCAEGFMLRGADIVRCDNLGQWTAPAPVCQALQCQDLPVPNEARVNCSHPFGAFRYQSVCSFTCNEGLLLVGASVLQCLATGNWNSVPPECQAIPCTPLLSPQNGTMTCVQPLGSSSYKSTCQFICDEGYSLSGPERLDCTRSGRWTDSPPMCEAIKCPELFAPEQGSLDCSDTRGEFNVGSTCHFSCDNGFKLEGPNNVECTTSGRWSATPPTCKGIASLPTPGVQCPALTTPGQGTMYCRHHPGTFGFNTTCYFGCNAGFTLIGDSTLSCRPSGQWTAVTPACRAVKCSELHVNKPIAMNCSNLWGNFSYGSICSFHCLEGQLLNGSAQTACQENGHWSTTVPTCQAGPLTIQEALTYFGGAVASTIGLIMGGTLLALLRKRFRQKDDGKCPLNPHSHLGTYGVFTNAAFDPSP
The assay can be described thus: SPR binding assay (Biacore). The note with it: recombinant biotinylated human P-Selectin, 25° C. On the procedure: Biacore experiments were performed to determine ka (M−1s−1), kd (s−1), KD (nM) values of monomeric peptides binding to human Selectin proteins. Recombinant biotinylated human P-Selectin protein was used. For analysis of binding, either a Biacore 3000 or 5200 instrument was used with a CMS sensor chip (GE Healthcare). For sensor chip surface preparation, streptavidin was immobilized on the chip using standard amine-coupling chemistry at 25° C. with HBS-N (10 mM HEPES, 0.15 M NaCl, pH 7.4) as the running buffer. The carboxymethyl dextran surface was activated with a 12 min injection of a 1:1 ratio of 0.4 M 1-ethyl-3-(3-dim ethyl aminopropyl) carbodiimide hydrochloride (EDC)/0.1 M N-hydroxy succinimide (NHS) at a flow rate of 10 μl/min. For capture of streptavidin, protein was diluted to 0.2 mg/ml in 10 mM sodium acetate (pH 4.5) and captured by injecting 70 μl onto the activated chip surface. Residual activated groups were blocked with a 7 min injection of 1 M ethanolamine (pH 8.5). Biotinylated protein stock was diluted 1:100 in HBS-N and captured on one flow cell at 5 μl/min to a level of 1000-1500 RU. Buffer was changed to PBS/0.05% Tween 20 and a dilution series of the peptides was prepared in this buffer with a final DMSO concentration of 0.5%. The top concentration of the analyte varied from 200 nM to 50 μM; depending on predicted affinity of the interaction. In all cases a titration was performed with either seven 2-fold dilutions or five 3-fold dilutions. The SPR analysis was run at 25° C. with a flow rate of 50-80 μl/min with 60 seconds association and a suitable disassociation period (100-900 seconds). Data were corrected for DMSO excluded volume effects. All data were double-referenced for blank injections and reference surface using standard processing procedures and data processing and kinetic fitting were performed using Scrubber software, version 2.0c (BioLogic Software). Data were fitted using mass transport model allowing for mass transport effects where appropriate.
For orientation: Surface plasmon resonance follows binding to a sensor surface in real time, without labels.

Like-named read-outs stand apart in the source and are kept apart here. Starred links: 1 amine or outer side, 2 acyl side, 3 side chain; linkers in the order of their positions; H or OH if unused. Positions of bridges follow the written chain, without caps; N, C: chain ends. Residues, ends and D or L forms follow the SMILES beside them. Chains are numbered I, II in the order given. X2 = O=C(CCCC(=O)NCCOCCOCCOCCOCCOCCOCCOCCOCCOCCOCCOCCOCCOCCOCCOCCOCCOCCOCCOCCOCCOCCOCCOCCn1cc(CCC(=O)[*:2])nn1)NCCOCCOCCOCCOCCOCCOCCOCCOCCOCCOCCOCCOCCOCCOCCOCCOCCOCCOCCOCCOCCOCCOCCOCCn1cc(CCC(=O)[*:1])nn1; TATA = O=C(CC[*:1])N1CN(C(=O)CC[*:2])CN(C(=O)CC[*:3])C1

Usually Kd stands for the free concentration of one partner at which half of the binding sites on the other are occupied at equilibrium, for simple one-to-one binding. Regarding `CSCC[C@@H]1NC(=O)[C@H](Cc2ccc(O)cc2)NC(=O)[C@@H](NC(=O)[C@H](C)NC(C)=O)CSCCC(=O)N2CN3CN(C2)C(=O)CCSC[C@H](NC(=O)[C@H](Cc2c[nH]c4ccccc24)NC(=O)[C@H](CCC(=O)O)NC1=O)C(=O)N[C@@H](CC(=O)O)C(=O)N[C@@H](C(C)C)C(=O)N[C@@H]([C@@H](C)O)C(=O)N[C@@H](CC(=O)O)C(=O)N[C@@H](Cc1ccc(O)cc1)C(=O)NCC(=O)N[C@H](C(=O)N[C@@H](CCCCNC(=O)CCc1cn(CCOCCOCCOCCOCCOCCOCCOCCOCCOCCOCCOCCOCCOCCOCCOCCOCCOCCOCCOCCOCCOCCOCCOCCNC(=O)CCCC(=O)NCCOCCOCCOCCOCCOCCOCCOCCOCCOCCOCCOCCOCCOCCOCCOCCOCCOCCOCCOCCOCCOCCOCCOCCn2cc(CCC(=O)NCCCC[C@H](NC(=O)[C@@H]4CSCCC(=O)N5CN6CN(C5)C(=O)CCSC[C@H](NC(=O)[C@H](Cc5c[nH]c7ccccc57)NC(=O)[C@H](CCC(=O)O)NC(=O)[C@H](CCSC)NC(=O)[C@H](Cc5ccc(O)cc5)NC(=O)[C@@H](NC(=O)[C@H](C)NC(C)=O)CSCCC6=O)C(=O)N[C@@H](CC(=O)O)C(=O)N[C@@H](C(C)C)C(=O)N[C@@H]([C@@H](C)O)C(=O)N[C@@H](CC(=O)O)C(=O)N[C@@H](Cc5ccc(O)cc5)C(=O)NCC(=O)N4)C(N)=O)nn2)nn1)C(N)=O)CSCCC3=O` [BCY5457] (I: Ac-ACYMEWCDVTDYGCK-NH2 / II: Ac-ACYMEWCDVTDYGCK-NH2; linker I:2-I:7-I:14, II:2-II:7-II:14 via TATA; linker I:15-II:15 via X2), the Kd (Affinity KD determined by SPR) came to 969 nM. Take `CSCC[C@@H]1NC(=O)[C@H](Cc2ccc(O)cc2)NC(=O)[C@@H](NC(=O)[C@H](C)NC(=O)CCc2cn(CCOCCOCCOCCOCCOCCOCCOCCOCCOCCOCCNC(=O)CCOCCN(CCOCCC(=O)NCCOCCOCCOCCOCCOCCOCCOCCOCCOCCOCCn3cc(CCC(=O)N[C@@H](C)C(=O)N[C@H]4CSCCC(=O)N5CN6CN(C5)C(=O)CCSC[C@H](NC(=O)[C@H](Cc5c[nH]c7ccccc57)NC(=O)[C@H](CCC(=O)O)NC(=O)[C@H](CCSC)NC(=O)[C@H](Cc5ccc(O)cc5)NC4=O)C(=O)N[C@@H](CC(=O)O)C(=O)N[C@@H](C(C)C)C(=O)N[C@@H]([C@@H](C)O)C(=O)N[C@@H](CC(=O)O)C(=O)N[C@@H](Cc4ccc(O)cc4)C(=O)NCC(=O)N[C@H](C(=O)N[C@@H](C)C(N)=O)CSCCC6=O)nn3)CCOCCC(=O)NCCOCCOCCOCCOCCOCCOCCOCCOCCOCCOCCn3cc(CCC(=O)N[C@@H](C)C(=O)N[C@H]4CSCCC(=O)N5CN6CN(C5)C(=O)CCSC[C@H](NC(=O)[C@H](Cc5c[nH]c7ccccc57)NC(=O)[C@H](CCC(=O)O)NC(=O)[C@H](CCSC)NC(=O)[C@H](Cc5ccc(O)cc5)NC4=O)C(=O)N[C@@H](CC(=O)O)C(=O)N[C@@H](C(C)C)C(=O)N[C@@H]([C@@H](C)O)C(=O)N[C@@H](CC(=O)O)C(=O)N[C@@H](Cc4ccc(O)cc4)C(=O)NCC(=O)N[C@H](C(=O)N[C@@H](C)C(N)=O)CSCCC6=O)nn3)nn2)CSCCC(=O)N2CN3CN(C2)C(=O)CCSC[C@H](NC(=O)[C@H](Cc2c[nH]c4ccccc24)NC(=O)[C@H](CCC(=O)O)NC1=O)C(=O)N[C@@H](CC(=O)O)C(=O)N[C@@H](C(C)C)C(=O)N[C@@H]([C@@H](C)O)C(=O)N[C@@H](CC(=O)O)C(=O)N[C@@H](Cc1ccc(O)cc1)C(=O)NCC(=O)N[C@H](C(=O)N[C@@H](C)C(N)=O)CSCCC3=O` [BCY5458]: the Kd (read-out: Affinity KD determined by SPR) worked out at 400 nM. For `CSCC[C@@H]1NC(=O)[C@H](Cc2ccc(O)cc2)NC(=O)[C@@H](NC(=O)[C@H](C)NC(C)=O)CSCCC(=O)N2CN3CN(C2)C(=O)CCSC[C@H](NC(=O)[C@H](Cc2c[nH]c4ccccc24)NC(=O)[C@H](CCC(=O)O)NC1=O)C(=O)N[C@@H](CC(=O)O)C(=O)N[C@@H](C(C)C)C(=O)N[C@@H]([C@@H](C)O)C(=O)N[C@@H](CC(=O)O)C(=O)N[C@@H](Cc1ccc(O)cc1)C(=O)NCC(=O)N[C@H](C(=O)N[C@@H](CCCCNC(=O)CCc1cn(CCOCCOCCOCCOCCOCCOCCOCCOCCOCCOCCNC(=O)CCOCC(COCCC(=O)NCCOCCOCCOCCOCCOCCOCCOCCOCCOCCOCCn2cc(CCC(=O)NCCCC[C@H](NC(=O)[C@@H]4CSCCC(=O)N5CN6CN(C5)C(=O)CCSC[C@H](NC(=O)[C@H](Cc5c[nH]c7ccccc57)NC(=O)[C@H](CCC(=O)O)NC(=O)[C@H](CCSC)NC(=O)[C@H](Cc5ccc(O)cc5)NC(=O)[C@@H](NC(=O)[C@H](C)NC(C)=O)CSCCC6=O)C(=O)N[C@@H](CC(=O)O)C(=O)N[C@@H](C(C)C)C(=O)N[C@@H]([C@@H](C)O)C(=O)N[C@@H](CC(=O)O)C(=O)N[C@@H](Cc5ccc(O)cc5)C(=O)NCC(=O)N4)C(N)=O)nn2)(COCCC(=O)NCCOCCOCCOCCOCCOCCOCCOCCOCCOCCOCCn2cc(CCC(=O)NCCCC[C@H](NC(=O)[C@@H]4CSCCC(=O)N5CN6CN(C5)C(=O)CCSC[C@H](NC(=O)[C@H](Cc5c[nH]c7ccccc57)NC(=O)[C@H](CCC(=O)O)NC(=O)[C@H](CCSC)NC(=O)[C@H](Cc5ccc(O)cc5)NC(=O)[C@@H](NC(=O)[C@H](C)NC(C)=O)CSCCC6=O)C(=O)N[C@@H](CC(=O)O)C(=O)N[C@@H](C(C)C)C(=O)N[C@@H]([C@@H](C)O)C(=O)N[C@@H](CC(=O)O)C(=O)N[C@@H](Cc5ccc(O)cc5)C(=O)NCC(=O)N4)C(N)=O)nn2)COCCC(=O)NCCOCCOCCOCCOCCOCCOCCOCCOCCOCCOCCn2cc(CCC(=O)NCCCC[C@H](NC(=O)[C@@H]4CSCCC(=O)N5CN6CN(C5)C(=O)CCSC[C@H](NC(=O)[C@H](Cc5c[nH]c7ccccc57)NC(=O)[C@H](CCC(=O)O)NC(=O)[C@H](CCSC)NC(=O)[C@H](Cc5ccc(O)cc5)NC(=O)[C@@H](NC(=O)[C@H](C)NC(C)=O)CSCCC6=O)C(=O)N[C@@H](CC(=O)O)C(=O)N[C@@H](C(C)C)C(=O)N[C@@H]([C@@H](C)O)C(=O)N[C@@H](CC(=O)O)C(=O)N[C@@H](Cc5ccc(O)cc5)C(=O)NCC(=O)N4)C(N)=O)nn2)nn1)C(N)=O)CSCCC3=O` [BCY5464], under “Affinity KD determined by SPR”, the Kd stood at 37.3 nM.
